In US5360613A, “Method of reducing blood levels of total cholesterol and low-density lipoprotein cholesterol” (Iowa State University Research Foundation, Inc., priority 1993, dated 1994):

Assays:
[1] = Human dose-response study, blood HMB (Example V); format: in vivo, humans
Description: (§1) Higher dose levels than in Example IV of Ca-HMB were tested in humans. The objective was to obtain an indication of whether higher doses could be safely administered, and also whether higher doses might provide a greater reduction in total cholesterol and LDL cholesterol.
(§2) Normal humans were used in the study. Ca-HMB was administered in 250 mg capsules, and the subjects were instructed to take the capsules in 4 equal doses daily. No control of diet was attempted except they were instructed to eat as they normally would. On alternate days the subjects had blood drawn before the morning meal and before they took the morning HMB dose. Four subjects were studied for dose level of 05., 1, 2 and 4 grams per day.

[2] = tested on: acetate incorporation into cholesterol; conditions: added to the media at very high concentrations; cited from earlier work
[3] = Human dose-response study, body weight and body fat (Example V, Table E); format: in vivo, humans; conditions: study combined with Example IV
Description: as §1, §2
(§3) Results from all samples of each subject were subjected to linear regression and the slope and intercept used to calculate the % change in concentration after 8 days on treatment. The percentage changes were then subjected to ANOVA-regression to determine if there was a linear effect of dosage on the parameter. The dose-response effect (p<) is listed in the linear effect column of Table E.

blood cholesterol = assay: Human dose-response study, blood cholesterol, triglycerides and glucose (Example V, Table E); format: in vivo, humans
Description: as §1, §2, §3

[4] = Controlled double-blind human study, body weight, body fat and resting metabolic rate (Example IV, Table D); format: in vivo, humans
Description: In view of the findings of the foregoing examples, a human study was carried out.
In a controlled double-blind study, the effects of feeding HMB on loss of urinary nitrogen, blood cholesterol and immune function in normal humans were tested. This study also measured blood components that reflect liver, kidney and tissue metabolism. In addition further measurements of nitrogen metabolism and immune function were implemented. All measurements were made in a controlled dietary situation and under blinded conditions. Normal male subjects were used who had been screened for normalcy. Ca-HMB was administered in 250 mg capsules. The subjects were instructed to take the capsules in 4 equal doses daily (with meals and at bed time). The subject ate all their meals under controlled conditions. Normal diets were used, and the amount of the diets was controlled to maintain equal and substantially constant nitrogen intake. The subjects had blood drawn before the morning meal or before they took the morning HMB dose. Each subject was studied twice: once with a placebo and once with HMB.

aorta = assay: Pig feeding study, aorta streaking (pre-atherosclerotic lesions) (Example III, Table C); format: in vivo, pigs; conditions: for Aorta Streaking: 0 least severe to 3.2 most severe, control 1.87
Description: (§4) A further large mammal study was carried out with pigs. Pigs comprise test animals which are more similar in certain respects to humans than ruminants.
(§5) Control: 60 g. of calcium
(§6) The pigs were housed in pens of two animals each and were allowed ad libitum access to food and water. Pigs were approximately 160 lbs. at the start of the experiment and were 240 lbs. at the end. All pigs were castrate males. At day 28 and day 43 of the experiment blood was collected from the anterior vena cava by venipuncture. Blood was collected into EDTA containing tubes, centrifuged and frozen until analyzed. At approximately 100 days of the experiment half of the animals (32) were slaughtered, and at 120 days the remaining 32 animals were slaughtered. At the time of slaughter the abdominal aorta was dissected out and external fat removed. The aorta was then split lengthwise and 1/2 fixed in formaldehyde for 48 hours. At this time aortas were removed, stretched over a 6 inch stick, washed in ethanol and stained with a lipid stain for 2 hours. After a 1 hour wash aortas were blotted and examined. All the aortas from a group were laid out on a white bench and arranged in order from least sever to most sever. The least sever had no dark red streaks on the aorta or around the small vertebral vessels leaving the aorta. The most sever lesions had multiple streaks in the middle of the aorta and dark red deposits in turbulent areas such as the branching of vessels from the aorta. The ordered aortas were then assigned a consecutive decimal number. The first (least severe) was assigned 0 and the most severe was assigned 3.2 Plasma cholesterol and triglycerides were measured by an enzyme-colorimetric assay (Sigma).
(§7) statistical analysis was accomplished by the general linear model procedure of the Statistical Analysis System (SAS). The model included the main effects of treatment and pen number. T-tests were conducted from the ANOVA standard error, to compare the HMB treatments to the control. […] It appeared that HMB can partially prevent the formation of pre-atherosclerotic lesions. No effect of KIC was noted relative to any parameter.

[5] = tested on: plasma cholesterol and triglycerides; assay: Pig feeding study, plasma cholesterol and triglycerides (Example III, Table C); format: in vivo, pigs; conditions: for Plasma Triglycerides: control 107, ns; for Plasma Cholesterol: control 135
Description: as §4, §5, §6, §7

[6] = 4 grams per day, end of the one week study
[7] = HMB change net of placebo-group change

With `CC(C)(O)CC(=O)O` [HMB, β-hydroxy-β-methylbutyric acid] as the compound, how does the “Blood HMB” value ([1]; 0.5 to 4 g per day) read?
The value was “increased in a dose-responsive manner”.

What about the “increase in blood HMB” value ([1]; 4 grams per day) of the same compound?
Its value is “very large increase”.

What about the “inhibition of acetate incorporation” value [2] of the same compound?
Its value is “no significant inhibition”.

What about the “effect on body fat” value [3] of the same compound?
The value was “extremely suggestive of an effect on body fat”.

And the cholesterol (blood cholesterol; 2 grams daily)?
The cholesterol was “appeared to decrease cholesterol”.

And the “decrease of LDL cholesterol” value (blood cholesterol; [6])?
The value was “about 6%”.

What about the “decrease of total cholesterol” value (blood cholesterol; [6]) of the same compound?
The value was “about 6%”.

And the cholesterol (blood cholesterol; doses lower than 2 grams daily)?
The cholesterol was “no effect was clearly observable”.

And the blood cholesterol (blood cholesterol; over the course of the week)?
The blood cholesterol was “decreased in a dose-responsive manner”.

And the “% Net Effect HMB, % Body fat” value [4, 7]?
The value was -9%.

And the “% Net Effect HMB, Resting metabolic rate” value [4, 7]?
The value was 0%.

What about the “% Net Effect HMB, Weight” value [4, 7] of the same compound?
Its value is 1.4%.

And the Body weight ([4]; HMB treatment)?
Its Body weight is “did not change”.

What about the body fat ([4]; HMB treatment) of the same compound?
Its body fat is “did not change”.

What about the resting metabolic rate ([4]; HMB treatment) of the same compound?
The resting metabolic rate was “did not change”.

And the “% Change Trt. % Body fat” value ([4]; control to HMB treatment)?
The value was -12%.

And the “% Change Trt. Resting metabolic rate” value ([4]; control to HMB treatment)?
Its value is 4%.

And the “% Change Trt. Weight” value ([4]; control to HMB treatment)?
Its value is 1.4%.

What about the “% Body fat (skin fold)” value ([4]; treated group on HMB, Ca HMB 1.0 grams/24 hours, pre-treatment control 12.5) of the same compound?
Its value is 11.0%.

What about the resting metabolic rate ([4]; treated group on HMB, Ca HMB 1.0 grams/24 hours, pre-treatment control 74.8) of the same compound?
The resting metabolic rate was 77.8 KCal/mw.

And the Weight ([4]; treated group on HMB, Ca HMB 1.0 grams/24 hours, pre-treatment control 176)?
The Weight was 179 lbs.

And the “deposits of fat in the aorta” value (aorta; HMB-fed pigs)?
Its value is “lower deposits of fat in the aorta”.

And the “Aorta Streaking” value (aorta; dietary .01%, HMB C vs. .01% p .12)?
The value was 1.23.

What about the “Aorta Streaking” value (aorta; dietary .05%, HMB p .06, KIC ns) of the same compound?
Its value is 1.18.

And the “Plasma Triglycerides” value ([5]; dietary .01%)?
Its value is 105 mg %.

And the “Plasma Cholesterol” value ([5]; dietary .01%, HMB C vs. .01% p .14)?
The value was 120 mg %.

And the “Plasma Triglycerides” value ([5]; dietary .05%)?
The value was 109 mg %.

And the “Plasma Cholesterol” value ([5]; dietary .05%, HMB p .05, KIC ns)?
The value was 118 mg %.
